Patent publication US6472348B1, “Pyridone derivatives and herbicides” (Kumiai Chemical Industry Co., Ltd., priority 1996, dated 2002)

What was measured:
[1] = tested on: barnyardgrass (Ec); assay: Test Example 1: herbicidal effects by paddy field soil treatment; type: in vivo; details: 100 g of the active ingredient per 10 ares, 21st day after the application, index 0-5 of Table 47;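 also: grade of growth control; 5 = at least 90%; 4 = 70 to 90%; 3 = 50 to 70%; 2 = 30 to 50%; 1 = 10 to 30%; 0 = under 10%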
In short: (§1)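 Herbicidal effect was scored against a graded standard 21 days after treatment. Seeds were sown in puddled, leveled paddy soil flooded to 3 cm depth, and the active ingredient was applied at 100 g per 10 ares before greenhouse culture.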

[2] = tested on: bulrush (Sc); assay: as above; type: in vivo; details: 100 g of the active ingredient per 10 ares, 21st day after the application, index 0-5 of Table 47;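 also: grade of growth control; 5 = at least 90%; 4 = 70 to 90%; 3 = 50 to 70%; 2 = 30 to 50%; 1 = 10 to 30%; 0 = under 10%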
In short: as §1

[3] = tested on: monochoria (Mo); assay: as above; type: in vivo; details: 100 g of the active ingredient per 10 ares, 21st day after the application, index 0-5 of Table 47;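 also: grade of growth control; 5 = at least 90%; 4 = 70 to 90%; 3 = 50 to 70%; 2 = 30 to 50%; 1 = 10 to 30%; 0 = under 10%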
In short: as §1

[4] = tested on: Digitaria ciliaris (Di); assay: Test Example 2: herbicidal effects by upland field soil treatment; type: in vivo; details: 100 g of the active ingredient per 10 ares;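 also: grade of growth control; 5 = at least 90%; 4 = 70 to 90%; 3 = 50 to 70%; 2 = 30 to 50%; 1 = 10 to 30%; 0 = under 10%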
Source text: (§2) (Test on Herbicidal Effects by Upland Field Soil Treatment)

[5] = tested on: barnyardgrass (Ec); assay: as above; type: in vivo; details: 100 g of the active ingredient per 10 ares
Source text: as §2

[6] = tested on: common lambsquarters (Ch); assay: as above; type: in vivo; details: 100 g of the active ingredient per 10 ares
Source text: as §2

[7] = tested on: pale smartweed (Po); assay: as above; type: in vivo; details: 100 g of the active ingredient per 10 ares
Source text: as §2

[8] = tested on: rice flatsedge (Ci); assay: as above; type: in vivo; details: 100 g of the active ingredient per 10 ares
Source text: as §2

[9] = tested on: slender amaranth (Am); assay: as above; type: in vivo; details: 100 g of the active ingredient per 10 ares
Source text: as §2

[10] = tested on: Diaitaria ciliaris (Di); assay: Test Example 3: herbicidal effects by upland field foliage treatment; type: in vivo; design: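 grade of growth control; 5 = at least 90%; 4 = 70 to 90%; 3 = 50 to 70%; 2 = 30 to 50%; 1 = 10 to 30%; 0 = under 10%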
In short: (§3)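 Sowing into sand pots with a 120 cm^2 surface, followed by soil covering and 2 weeks of greenhouse growth, preceded the leaf treatment. Scoring of weed control took place on the 14th day afterwards according to set evaluation criteria.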

[11] = tested on: barnyardgrass (Ec); assay: as above; type: in vivo; design: scale not given here
In short: as §3

[12] = tested on: common lambsquarters (Ch); assay: as above; type: in vivo; design: scale not given here
In short: as §3

[13] = tested on: pale smartweed (Po); assay: as above; type: in vivo; design: scale not given here
In short: as §3

[14] = tested on: rice flatsedge (Ci); assay: as above; type: in vivo; design: scale not given here
In short: as §3

[15] = tested on: slender amaranth (Am); assay: as above; type: in vivo; design: scale not given here
In short: as §3

[16] = tested on: cotton (Go); assay: Test Example 4: crop plant selectivity by upland field soil treatment (cotton), phytotoxicity; type: in vivo; design: scale not given here; details: dose 6.3 g ai/10 a, evaluated 21st day after application
In short: (§4)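 Weeds and cotton, sown in sand and topped with soil, received a soil-applied treatment. Evaluation after three weeks in a greenhouse followed a standard rating scale.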

[17] = tested on: China jute (Ab); assay: Test Example 4: crop plant selectivity by upland field soil treatment (cotton), herbicidal effects; type: in vivo; design: scale not given here; details: dose 6.3 g ai/10 a, evaluated 21st day after application
In short: as §4

[18] = tested on: common lambsquarters (Ch); assay: as above; type: in vivo; design: scale not given here; details: dose 6.3 g ai/10 a, evaluated 21st day after application
In short: as §4

[19] = tested on: green foxtail (Se); assay: as above; type: in vivo; design: scale not given here; details: dose 6.3 g ai/10 a, evaluated 21st day after application
In short: as §4

[20] = tested on: pale smartweed (Po); assay: as above; type: in vivo; design: scale not given here; details: dose 6.3 g ai/10 a, evaluated 21st day after application
In short: as §4

[21] = tested on: slender amaranth (Am); assay: as above; type: in vivo; design: scale not given here; details: dose 6.3 g ai/10 a, evaluated 21st day after application
In short: as §4

[22] = tested on: corn (Ze); assay: Test Example 7: crop plant selectivity by upland field soil treatment (corn), phytotoxicity; type: in vivo; design: scale not given here; details: dose 6.3 g ai/10a, 21st day after application
In short: (§5)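 Greenhouse pot test in sand with soil cover over seeds of corn and weeds sown together; scored 21 d after treatment.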

[23] = tested on: China jute (Ab); assay: Test Example 7: crop plant selectivity by upland field soil treatment (corn), herbicidal effects; type: in vivo; design: scale not given here; details: dose 6.3 g ai/10a, 21st day after application
In short: as §5

[24] = tested on: common lambsquarters (Ch); assay: as above; type: in vivo; design: scale not given here; details: dose 6.3 g ai/10a, 21st day after application
In short: as §5

[25] = tested on: green foxtail (Se); assay: as above; type: in vivo; design: scale not given here; details: dose 6.3 g ai/10a, 21st day after application
In short: as §5

[26] = tested on: pale smartweed (Po); assay: as above; type: in vivo; design: scale not given here; details: dose 6.3 g ai/10a, 21st day after application
In short: as §5

[27] = tested on: slender amaranth (Am); assay: as above; type: in vivo; design: scale not given here; details: dose 6.3 g ai/10a, 21st day after application
In short: as §5

[28] = tested on: wheat (Tr); assay: Test Example 9: crop plant selectivity by upland field foliage treatment (wheat), phytotoxicity; details: dose 1.6 g ai/10a, 14th day after treatment
In short: (§6)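 Read-out: weed control and wheat injury, rated by a defined scoring standard 14 days after foliar application.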

[29] = tested on: China jute (Ab); assay: Test Example 9: crop plant selectivity by upland field foliage treatment (wheat), herbicidal effects; type: in vivo; design: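 grade of growth control; 5 = at least 90%; 4 = 70 to 90%; 3 = 50 to 70%; 2 = 30 to 50%; 1 = 10 to 30%; 0 = under 10%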; details: dose 1.6 g ai/10a, 14th day after treatment
In short: as §6

[30] = tested on: common lambsquarters (Ch); assay: as above; type: in vivo; design: scale not given here; details: dose 1.6 g ai/10a, 14th day after treatment
In short: as §6

[31] = tested on: pale smartweed (Po); assay: as above; type: in vivo; design: scale not given here; details: dose 1.6 g ai/10a, 14th day after treatment
In short: as §6

[32] = tested on: slender amaranth (Am); assay: as above; type: in vivo; design: scale not given here; details: dose 1.6 g ai/10a, 14th day after treatment
In short: as §6

[33] = tested on: corn (Ze); assay: Test Example 11: crop plant selectivity by upland field foliage treatment (corn), phytotoxicity; details: upland field foliage treatment, dose 1.6 g ai/10a, 14th day after treatment
In short: (§7)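 Corn with pale smartweed, slender amaranth, common lambsquarters and China jute sown in sand-filled pots and grown 2 weeks in a greenhouse before foliage treatment. Herbicidal effect and crop phytotoxicity scored on day 14 after treatment against a rating standard.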

[34] = tested on: China jute (Ab); assay: Test Example 11: crop plant selectivity by upland field foliage treatment (corn), herbicidal effects; type: in vivo; design: scale not given here; details: upland field foliage treatment (corn test), dose 1.6 g ai/10a, 14th day after treatment
In short: as §7

[35] = tested on: common lambsquarters (Ch); assay: as above; type: in vivo; design: scale not given here; details: upland field foliage treatment (corn test), dose 1.6 g ai/10a, 14th day after treatment
In short: as §7

[36] = tested on: pale smartweed (Po); assay: as above; type: in vivo; design: scale not given here; details: upland field foliage treatment (corn test), dose 1.6 g ai/10a, 14th day after treatment
In short: as §7

[37] = tested on: slender amaranth (Am); assay: as above; type: in vivo; design: scale not given here; details: upland field foliage treatment (corn test), dose 1.6 g ai/10a, 14th day after treatment
In short: as §7

[38] = tested on: soybean (Gl); assay: Test Example 6: crop plant selectivity by upland field soil treatment (soybean), phytotoxicity; type: in vivo; design: scale not given here; details: dose 6.3 g ai/10a, 21st day after application
In short: (§8)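 Soybean and weed seeds were sown in sand-filled pots and covered with soil, then given a pre-emergence soil application. Plants were grown on in a greenhouse, and herbicidal effect and crop phytotoxicity were scored against a set rating scale 21 days after application.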

[39] = tested on: China jute (Ab); assay: Test Example 6: crop plant selectivity by upland field soil treatment (soybean), herbicidal effects; type: in vivo; design: scale not given here; details: dose 6.3 g ai/10a, 21st day after application
In short: as §8

[40] = tested on: common lambsquarters (Ch); assay: as above; type: in vivo; design: scale not given here; details: dose 6.3 g ai/10a, 21st day after application
In short: as §8

[41] = tested on: green foxtail (Se); assay: as above; type: in vivo; design: scale not given here; details: dose 6.3 g ai/10a, 21st day after application
In short: as §8

[42] = tested on: pale smartweed (Po); assay: as above; type: in vivo; design: scale not given here; details: dose 6.3 g ai/10a, 21st day after application
In short: as §8

[43] = tested on: slender amaranth (Am); assay: as above; type: in vivo; design: scale not given here; details: dose 6.3 g ai/10a, 21st day after application
In short: as §8

[44] = 21st day after the application, index 0-5 of Table 47
[45] = 100 g of the active ingredient per 10 ares, evaluated on the 14th day after treatment
[46] = evaluated on the 21st day after application
[47] = 100 g active ingredient per 10 ares, evaluated 14th day after treatment

melting point [°C] | Structure (SMILES) | Herbicidal effects Ec [1] | Herbicidal effects Sc [2] | Herbicidal effects Mo [3] | Phytotoxicity Go [16] | Herbicidal effects Ab [17] | Herbicidal effects Ch [18] | Herbicidal effects Se [19] | Herbicidal effects Po [20] | Herbicidal effects Am [21] | Phytotoxicity Tr [28] | Herbicidal effects Ab [29] | Herbicidal effects Ch [30] | Herbicidal effects Po [31] | Herbicidal effects Am [32] | Phytotoxicity Ze [33] | Herbicidal effects Ab [34] | Herbicidal effects Ch [35] | Herbicidal effects Po [36] | Herbicidal effects Am [37] | other results
 | Cn1c(C(F)(F)F)ccc(-c2cc(Oc3ncccn3)c(Cl)cc2Cl)c1=O [1-41] | 5 | 5 | 5 | 1 | 5 | 5 | 5 | 5 | 5 | 2 | 5 | 5 | 5 | 5 | 2 | 5 | 5 | 5 | 5 | Herbicidal effects Di [4, 44]: 5; Herbicidal effects Ec [5, 44]: 5; Herbicidal effects Ch [6, 44]: 5; Herbicidal effects Po [7, 44]: 5; Herbicidal effects Ci [8, 44]: 5; Herbicidal effects Am [9, 44]: 5; Herbicidal effects Di [10, 45]: 5; Herbicidal effects Ec [11, 45]: 5; Herbicidal effects Ch [12, 45]: 5; Herbicidal effects Po [13, 45]: 5; Herbicidal effects Ci [14, 45]: 5; Herbicidal effects Am [15, 45]: 5; Phytotoxicity Ze [22]: 1; Herbicidal effects Ab [23]: 5; Herbicidal effects Ch [24]: 5; Herbicidal effects Se [25]: 5; Herbicidal effects Po [26]: 5; Herbicidal effects Am [27]: 5
 | COCCOc1cc(-c2ccc(C(F)(F)F)n(C)c2=O)c(F)cc1Cl [1-170] | 5 | 5 | 5 | 1 | 5 | 5 | 5 | 5 | 5 | 1 | 5 | 5 | 5 | 5 | 0 | 5 | 5 | 5 | 5 | Herbicidal effects Di [4, 46]: 5; Herbicidal effects Ec [5, 46]: 5; Herbicidal effects Ch [6, 46]: 5; Herbicidal effects Po [7, 46]: 5; Herbicidal effects Ci [8, 46]: 5; Herbicidal effects Am [9, 46]: 5; Herbicidal effects Di [10, 45]: 5; Herbicidal effects Ec [11, 45]: 5; Herbicidal effects Ch [12, 45]: 5; Herbicidal effects Po [13, 45]: 5; Herbicidal effects Ci [14, 45]: 5; Herbicidal effects Am [15, 45]: 5; Phytotoxicity Gl [38]: 2; Herbicidal effects Ab [39]: 5; Herbicidal effects Ch [40]: 5; Herbicidal effects Se [41]: 5; Herbicidal effects Po [42]: 5; Herbicidal effects Am [43]: 5
225 to 227 | Cn1c(C(F)(F)F)ccc(-c2c(Cl)cc(Cl)c3oc(C(Br)(Br)Br)cc23)c1=O [4-40, 3-(5,7-dichloro-2-tribromomethylbenzofuran-4-yl)-1-methyl-6-trifluoromethyl-2-(1H)-pyridone] |  |  |  |  |  |  |  |  |  |  |  |  |  |  |  |  |  |  |  | 
 | CC(C)C(=O)c1cc(-c2ccc(C(F)(F)F)n(C)c2=O)c(F)cc1Cl [Compound 1-196] | 5 | 5 | 5 | 0 | 5 | 5 | 5 | 5 | 5 | 2 | 5 | 5 | 5 | 5 | 2 | 5 | 5 | 5 | 5 | Herbicidal effects Di [4, 46]: 5; Herbicidal effects Ec [5, 46]: 5; Herbicidal effects Ch [6, 46]: 5; Herbicidal effects Po [7, 46]: 5; Herbicidal effects Ci [8, 46]: 5; Herbicidal effects Am [9, 46]: 5; Herbicidal effects Di [10, 47]: 5; Herbicidal effects Ec [11, 47]: 5; Herbicidal effects Ch [12, 47]: 5; Herbicidal effects Po [13, 47]: 5; Herbicidal effects Ci [14, 47]: 5; Herbicidal effects Am [15, 47]: 5; Phytotoxicity Ze [22]: 1; Herbicidal effects Ab [23]: 5; Herbicidal effects Ch [24]: 5; Herbicidal effects Se [25]: 5; Herbicidal effects Po [26]: 5; Herbicidal effects Am [27]: 5
83 to 85 | Cc1ccc(-c2ccc(Cl)cc2Cl)c(=O)n1C(F)F [Compound No. 1-8, 3-(2,4-dichlorophenyl)-1-difluoromethyl-6-methyl-2(1H)-pyridone] |  |  |  |  |  |  |  |  |  |  |  |  |  |  |  |  |  |  |  | 
141 to 142 | Cn1c(C(F)(F)F)ccc(-c2cc(S)c(Cl)cc2F)c1=O [Compound No. 1-42, 3-(4-chloro-2-fluoro-5-mercaptophenyl)-1-methyl-6-trifluoromethyl-2(1H)-pyridone] |  |  |  |  |  |  |  |  |  |  |  |  |  |  |  |  |  |  |  | 
155 to 157 | Cn1c(C(F)(F)F)ccc(-c2cc(N)c(Cl)cc2F)c1=O [Compound No. 1-59, 3-(5-amino-4-chloro-2-fluorophenyl)-1-methyl-6-trifluoromethyl-2(1H)-pyridone] |  |  |  |  |  |  |  |  |  |  |  |  |  |  |  |  |  |  |  | 
